According to PMC6941144 (ACS chemical biology, 2019):

Legend:
[1] = biological target: HIV-1 protease 10Mut (Human immunodeficiency virus type 1 group M subtype B, UniProt P12497, A559V/G504E/I501V/I572V/K533I/L521F/L564V/M534I/Q495K/V520I/V570F); settings: relative to 8Mut; ΔG = RTln[Ki]
[2] = biological target: HIV-1 protease 11Mut (Human immunodeficiency virus type 1 group M subtype B, UniProt P12497, A559V/G504E/I501V/I542L/I572V/K533I/L521F/L564V/M534I/Q495K/V520I/V570F); settings: 11Mut vs WT
[3] = biological target: HIV-1 protease 9Mut-A71V (Human immunodeficiency virus type 1 group M subtype B, UniProt P12497, A559V/G504E/I501V/I572V/K533I/L521F/M534I/Q495K/V520I/V570F); settings: relative to 8Mut; ΔG = RTln[Ki]
[4] = test system: HIV-1 protease 2Mut (V82F, I84V); assay: Enzyme inhibition; type: biochemical; settings: primary active site mutations (2 mutations); abstract
[5] = biological target: HIV-1 protease 9Mut-L76V (Human immunodeficiency virus type 1 group M subtype B, UniProt P12497, G504E/I501V/I572V/K533I/L521F/L564V/M534I/Q495K/V520I/V570F); settings: relative to 8Mut; ΔG = RTln[Ki]

CC(C)CN(C[C@@H](O)[C@H](Cc1ccccc1)NC(=O)O[C@H]1CO[C@H]2OCC[C@H]21)S(=O)(=O)c1ccc(N)cc1 [DRV, Darunavir]
ΔΔG10Mut (change in free energy of inhibitor binding) [1]: 1.45 ± 0.05 kcal/mol
decrease in inhibition compared to WT [2]: 152,000 fold
ΔΔG9Mut-A71V (change in free energy of inhibitor binding) [3]: 0.35 ± 0.07 kcal/mol
loss in potency [4]: ~ 50 fold
ΔΔG9Mut-L76V (change in free energy of inhibitor binding) [5]: 1.55 ± 0.10 kcal/mol
